The values below are quoted from earlier work in US20050171434A1, “Chromophore probes for optical imaging” (VisEn Medical, Inc., priority 2002, published 2005).

Take Cy5.5: the λem (emission wavelength) is on record as 694 nm. For the same substance, the λex (excitation wavelength) was 675 nm.
